From PMC3608532, “Characterization of a Single-Chain Variable Fragment Recognizing a Linear Epitope of Aβ: A Biotechnical Tool for Studies on Alzheimer’s Disease?” (PLoS ONE, 2013) come the findings set out here.

The subject of test [1] is Aβ(1-8). Kind of test: SPR binding kinetics to immobilized Aβ(1-8). The settings on record: SPR Biacore X, PBS, 25°C, global fit, scFv-IC16 Langmuir 1:1 model, IC16 bivalent model, ± standard error, SEM. The procedure: (§1) Binding kinetics were determined by SPR using a Biacore™ X (GE Healthcare, UK). Synthetic Aβ peptides were dissolved in 10 mM NaAc, pH 4.0. The CM5 sensor chip surface (GE Healthcare, UK) was activated using N-ethyl-N′-3 […] carbodiimide (EDC) and N-hydroxysuccinimide (NHS) chemistry followed by 2-(2-pyridinyldithio)ethaneamine hydrochloride (PDEA), in order to introduce a reactive thiol group. Aβ was coupled via the C-terminal cysteine to the chip at a flow rate of 5 µl/min, and the remaining active groups were blocked by injecting cysteine. The immobilization procedure was performed according to manufacturer’s recommendation. All kinetic analyses were performed at a flow rate of 20 µl/min in PBS. Varying concentrations of scFv-IC16 (10 to 5000 nM) and IC16 (10 to 1000 nM) were injected. […] When required, the surface was regenerated by injecting 20 µl 50 mM glycine, pH 11.0. The data evaluation was performed using Biaevaluation Software 4.1.1. ScFv-IC16 data were fitted according to the Langmuir 1∶1 binding model, whereas IC16 data were fitted according to the bivalent binding model. Standard errors of equilibrium dissociation constants (KD) were calculated using standard errors of the corresponding association and dissociation rate constants.
A general note: Surface plasmon resonance follows binding to a sensor surface in real time, without labels.

In test [2] the test system is Aβ(2-8). The test is described as follows: SPR binding kinetics to immobilized Aβ(2-8). The settings on record: SPR Biacore X, CM5 chip, PBS, 25°C, global fit; scFv-IC16 Langmuir 1:1 model, IC16 bivalent model; ± standard error; SEM. Here is the method:
as §1

Test [3] deals with Aβ(3-8). The test is described as follows: SPR binding kinetics to immobilized Aβ(3-8). Conditions: SPR Biacore X, CM5 chip, PBS, 25°C, global fit; scFv-IC16 Langmuir 1:1 model, IC16 bivalent model; ± standard error; SEM. The procedure: as §1
Test [4] has as its target Aβ(pE3-8). The test is described as follows: SPR binding kinetics to immobilized Aβ(pE3-8). The settings on record: SPR Biacore X, CM5 chip, PBS, 25°C, global fit, IC16 bivalent model. Here is the method: as §1
Test [5] concerns Aβ(8-15). The test is described as follows: SPR binding kinetics to immobilized Aβ(8-15). The procedure:
as §1

With “IC16: monoclonal IgG2a antibody recognizing Aβ(1-8), from hybridoma of mouse immunized with KLH Aβ(1-16)”, the k on in test [1] (Aβ peptide coupled via C-terminal cysteine to CM5 chip, 20 µl/min) was 3.5±0.02×10^4 M^-1 s^-1; in test [2], 4.85±0.01×10^4 M^-1 s^-1; in test [3], 4.17±0.006×10^4 M^-1 s^-1; in test [4] (± standard error, SEM), 4.21±0.008×10^4 M^-1 s^-1. Further, the k off in test [1] (CM5 chip) is 1.8±0.02×10^−3 s^-1; in test [2] it was 1.54±0.006×10^−3 s^-1; in test [3], 3.43±0.007×10^−3 s^-1; in test [4] (± standard error, SEM), 63±0.05×10^−3 s^-1. In test [4] (n.d. = no detectable binding (footnote)), this substance displayed a Kd of 1500 nM. Also, the “interaction with Aβ(8-15)” value in test [5] is “No interaction”.
